Tests used:
[1] = system: nicotine seeking behavior; test: Extinction and reinstatement of nicotine seeking, mouse intravenous operant self-administration; assay type: in vivo, C57B16/J mice; conditions: L-histidine 1 g/kg or 2 g/kg; mice
Procedure: L-Histidine solution: L-Histidine (Sigma, H-8000) at a 155.15 g/mol concentration in 0.34 M phosphoric acid is prepared as follows. 1.5 g L-histidine are dissolved in 12 ml of 0.34 M phosphoric acid to obtain a 0.8 M solution of L-histidine at approximately pH 6. pH is verified and 0.1 g of NaCl added to a final concentration of 0.9%. Finally, the L-histidine solution is sterilized by filtration.
Animals: Male C57B16/J mice (Charles River, France) are housed individually in controlled laboratory conditions with the temperature maintained at 21±1° C., humidity at 55±10%, and light reversal cycle (light on at 20.00 h, light off at 08.00 h). Mice are tested during the dark phase of a light reversal cycle. Behavioural tests and animal care are conducted in accordance with the standard ethical guidelines (National Institutes of Health 1995; European Communities Directive 86/609 EEC) and the protocols are approved by the local ethical committee (CEEA-PRBB).
Apparatus: The self-administration experiments are conducted in mouse operant chambers (Model ENV-307A-CT, Medical Associates, Georgia, VT, USA). The experimental chambers are equipped with a house light, ventilator fan, drug infusion pump, liquid swivel with counterbalanced arm, and two manipulanda with cue lights that are located on either side of a food dipper. The manipulanda are holes (1.2 cm diameter). […]
The catheter is flushed daily with a saline solution containing heparin (30 UI/mL) in order to maintain its patency. The patency of intravenous catheters is evaluated periodically (approximately every 6 days) and whenever drug self-administration behavior appears to deviate dramatically from that observed previously. Patency is evaluated by the infusion of 0.1 ml of thiobarbital (5 mg/ml) through the catheter. […]
L-Histidine dosage: The first L-histidine dose is 1 g/kg. […] Dosage for other H3 histaminergic agonists or H3 histaminergic agonist precursors is determined considering the pharmacokinetic and toxicological characteristics of the compound. […]

[2] = system: alcohol-seeking responses (craving); test: Cue-induced reinstatement of ethanol-seeking behavior; assay type: in vivo, rat; conditions: L-histidine acute injection; rats
Procedure: The goal of this study is to evaluate the effects of a H3 histaminergic ligand, such as L-histidine, in a gold-standard model in the alcohol field. Namely, cue-induced reinstatement of alcohol-seeking behavior in order to measure alcohol-seeking responses (craving).
Priming and cue-induced reinstatement of ethanol-seeking behavior: Rats are trained to self-administer 10% (v/v) ethanol in a single 30 minute daily session on a Fixed Ratio 1 (FR 1) schedule. During the first three days of training, responses at the left lever are reinforced by delivery of 0.2% (w/v) saccharin solution. Following acquisition of saccharin-reinforced responding, rats are trained to self-administer ethanol. Thus, rats have access to 0.2% saccharin with 5% ethanol for one day, 5% ethanol for 1 day, 0.2% saccharin with 8% ethanol for 1 day, 8% ethanol for 1 day, 0.2% saccharin with 10% ethanol for 1 day, and 10% ethanol for 1 day. During all the training phase, responses at the right lever result in the delivery of a drop of water.
During the conditioning phase, animals are trained to discriminate the availability of ethanol (reward) vs. water (non-reward). This phase starts after completion of the saccharin-fading procedure. […] The 5 second period serves as “time-out” during which responses are recorded but not reinforced. […]

N[C@@H](Cc1c[nH]cn1)C(=O)O [L-histidine] was tested, and the “cue-induced reinstatement of nicotine seeking” value [1] was “decreases cue-induced reinstatement”, the “number of sessions required to achieve the extinction criteria (nicotine)” value [1] was “shortens the number of sessions” and the “responding during the first extinction session (nicotine)” value [1] was “decreases or delays responding”. The “alcohol seeking (craving) induced by cues” value [2] was “decreases alcohol seeking”.

From patent US20110130425A1, “Use of H3 Histaminergic Agonists for the Treatment of Addiction to Drugs of Abuse” (priority 2009, published 2011)
